Numbers after ± are expanded uncertainties. Blank lines part the entries; values can stand above or below the compound they belong to.
Assays:
[1] = 304.15 K; 100 kPa; Liquid; transient hot wire
[2] = wn = mass fraction of the nth substance listed; conditions: 304.15 K, 100 kPa, Liquid, transient hot wire

thermal conductivity [1]: 0.613 ± 0.025 W/m/K
SMILES: O [water]

thermal conductivity ([2]; w1 = 0.001): 0.589 ± 0.024 W/m/K | thermal conductivity ([2]; w1 = 0.003): 0.538 ± 0.022 W/m/K | thermal conductivity ([2]; w1 = 0.005): 0.537 ± 0.022 W/m/K | thermal conductivity ([2]; w1 = 0.007): 0.499 ± 0.02 W/m/K
SMILES: CCCCCCCCCCCCOS(=O)(=O)[O-].[Na+] [sodium dodecyl sulfate] + O

thermal conductivity ([2]; w2 = 0): 0.613 ± 0.025 W/m/K
SMILES: O [water] + CCCCCCCCCCCCOS(=O)(=O)[O-].[Na+]

From the NIST ThermoML archive (doi:10.1016/j.tca.2019.178308)
